Measured values published in patent publication US6613317B1, “Volatile attractants for diabrotica species” (priority 1988, dated 2003).
Marks after values point to notes of the source that are not given here.

Experiments:
[1] = tested on: western corn rootworm (WCR) adults; test: Sticky trap attraction in sweet corn plots (Example 1); format: in vivo, Diabrotica virgifera virgifera; conditions: for Mean number of WCR per trap (±standard deviation): n = 4
In short: (§1)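 Field trapping in sweet-corn plots beside a Blue Hubbard squash trap crop; lures on mineral-oil-impregnated cotton wicks atop sticky paper-carton traps on 1-m posts, 4 replicates in randomized complete blocks. Beetles counted after 24 h; VIPAE/VIP/TIC mixtures and single components at 1–300 mg per trap, ANOVA/Duncan at P=0.05.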

[2] = tested on: D. u. howardi adults; format: in vivo, Diabrotica undecimpunctata howardi; conditions: TEX×PEP bait with 0.1% methomyl alone or with 1% veratrole added
Source text: A noncucurbit carrier, 10-mesh corn grits (71% of which passed through a 2-mm screen), was obtained from Illinois Cereal Mills, Paris, Ill. (designated as pesticide carrier grits, 980). This carrier was impregnated with different levels of cucurbitacins by addition of varying amounts of a chloroform extract of AND×MAX fruit containing 0.12% cucurbitacins B and D (Metcalf, et al., Proc. Natl. Acad. Sci. USA, 77:3769-3772 (1980), Metcalf, et al., Environ. Entomol., 11:921-927 (1982)). The cucurbitacin-containing areas were scraped from plates, extracted in anhydrous methanol, centrifuged, and the UV absorption at 210 nm determined by UV spectrophotometry. Content of cucurbitacins was quantified from standard curves of pure cucurbitacins B, D, E and I, and E-glycoside (Metcalf, et al., Proc. Natl. Acad. Sci. USA, 77:3769-3772 (1980), Metcalf, et al., Environ. Entomol., 11:921-927 (1982)).
The various dried, ground, and insecticide-treated baits were given preliminary field evaluation by placing uniform amounts in petri-dish halves (150-mm diameter) that were placed at random on the ground in cucurbit and corn rows heavily infested ith SCR, WCR, and SCB adults. Ten dishes were used for each treatment; the maximum dosage of dried baits used was 300 mg per dish, equivalent to […]. Mortality counts of adult beetles in the dishes were made after 20-40 h.

[3] = tested on: southern corn rootworm (SCR) adults; test: Sticky trap attraction in sweet corn plots (Example 1); format: in vivo, Diabrotica undecimpunctata howardi; conditions: for Mean number of SCR per trap (±standard deviation): n = 4
In short: as §1

[4] = tested on: D. v. virgifera; test: Sticky trap attraction along hybrid corn, Pomology South Farms (Example 2); format: in vivo, Diabrotica virgifera virgifera; conditions: 100 mg per trap, n = 4
Protocol: (§2) The candidate lures in all experiments were purchased commercially and exceeded 98% purity. The test chemicals were applied by capillary micropipettes to cotton dental wicks which were attached to the tops of 1.0 liter cylindrical paper cartons covered with TangleTrap™ (Tanglefoot Co., Grand Rapids, Mich.). The sticky trap techniques used were as described in Example 1. Cinnamyl alcohol and para-methoxycinnamaldehyde, which are solids, were dissolved in glass-distilled acetone prior to dosing the cotton wicks. All treatments were applied at a dosage of 100 mg per trap. 1,2,4-trimethoxybenzene, indole, and trans-cinnamaldehyde were mixed in a ratio of 1:1:1, by weight, immediately prior to dosing the cotton wicks. Control traps had untreated cotton wicks. Four replicates of treated and untreated traps were randomly positioned 10 meters apart on top of 1 m high posts along the border of a eight foot wide strip cut through the middle of a 4.05 ha relict prairie at Trelease Woods (ca. two miles northeast of Urbana, Ill.). The field consisted primarily of Andropogon gerardii Vitman (big bluestem) and a variety of composites. The tests were conducted in mid-August of two years and were timed to coincide with the presence of D. cristata and D. barberi adults in the flower heads of Canada thistle (Carduus arvensis Robson). In the second year, several new attractants of D. v. virgifera and D. barberi were tested in Trelease Woods and along the edge of a 0.8 ha field of hybrid corn located at the Pomology South Farms, Urbana, Ill. Attraction of Diabrotica species to the various lures was measured by the mean number of beetles caught after 24-h. On one date in late August of the first year, D. cristata and D. barberi were removed from the traps and sexed in the laboratory. The significance of treatments in all tests was determined by an analysis of variance and the individual means were separated by Duncan's multiple range test (Statistical Package for Social Science, Nie, et al., SPSS: statistical package for the social sciences, 2nd ed. McGraw-Hill, New York (1975). Data were logarithmically transformed for statistical analysis and the means and standard deviations are presented for the untransformed data.

[5] = tested on: D. cristata; test: Sticky trap attraction in prairie habitat, Trelease Woods (Example 2); format: in vivo, Diabrotica cristata; conditions: August 11, 1987; 100 mg per trap; n = 4
In short: (§3)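 Lure-dosed cotton wicks (solids in acetone; untreated controls) on TangleTrap-coated cartons atop 1 m posts, four replicates 10 m apart in relict prairie, mid-August over two years. Read-out: mean beetles caught after 24-h; log-transformed ANOVA with Duncan's multiple range test.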

[6] = tested on: D. u. howardi; test: Sticky trap attraction along hybrid corn, Pomology South Farms (Example 2); format: in vivo, Diabrotica undecimpunctata howardi; conditions: 100 mg per trap, n = 4
Protocol: as §2

[7] = tested on: WCR; conditions: in vivo; cited from earlier work
[8] = tested on: D. v. virgifera; test: Sticky trap attraction in prairie habitat, Trelease Woods (Example 2); format: in vivo, Diabrotica virgifera virgifera; conditions: August 11, 1987; 100 mg per trap; n = 4
In short: as §3

[9] = tested on: northern corn rootworm (NCR) adults; test: Sticky trap attraction in corn, estragole analogues (Example 3); format: in vivo, Diabrotica barberi; conditions: 100 mg per trap, n = 4
Protocol: (§4) Test chemicals were applied by capillary micropipettes to cotton dental wicks that were attached to tops of 1.0 liter cylindrical paper cartons covered with TangleTrap™, Grand Rapids, Mich. The trapping techniques used were as previously described in Example 1. Cinnamyl alcohol, 4-methoxycinnamaldehyde, cinnamyl acetate, and 4-(4′methoxyphenyl)-3-butene-2-one which are solids at ambient temperature were prepared as standard w/v solutions in acetone prior to dosing the cotton wicks. All treatments were made at a dosage of 100 mg or 100 μL of attractant per trap. Control traps had untreated wicks. Four replicates of treated and untreated traps were positioned randomly 10 meters apart on top of 1 m high posts along the edges of 25-50 ha. fields of hybrid corn (Zea mays), infested with adult NCR, SCR, and WCR beetles. Several experiments detailed in the Tables were made in a 0.4 ha plot of sweet corn (Illini X-tra Sweet).
(§5) Attraction of Diabrotica species adults of the sticky traps was measured by the mean number of beetles caught after 1 day (ca. 24 hours) exposure. The significance of the treatments was determined by analysis of variance and the individual means were separated by Duncan's multiple range test (Statistical Package for the Social Sciences, Nie, et al., 2nd. ed. McGraw-Hill, New York (1975). The data was logarithmically transformed for statistical analysis. Means and standard deviations are presented for the untransformed data. Significance levels were set at P=0.05 for all statistical analyses.

[10] = tested on: D. u. howardi; test: Sticky trap attraction in prairie habitat, Trelease Woods (Example 2); format: in vivo, Diabrotica undecimpunctata howardi; conditions: August 11, 1987; 100 mg per trap; n = 4
In short: as §3

[11] = tested on: D. barberi; test: as above; format: in vivo, Diabrotica barberi; conditions: August 11, 1987; 100 mg per trap; n = 4
In short: as §3

[12] = tested on: southern corn rootworm (SCR) adults; test: Sticky trap attraction in corn, estragole analogues (Example 3); format: in vivo, Diabrotica undecimpunctata howardi; conditions: 100 mg per trap, n = 4
In short: (§6)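 Cotton wicks dosed with 100 mg or 100 μL attractant per trap on TangleTrap-coated cartons, four replicates 10 m apart on 1 m posts at field edges of hybrid or sweet corn. Mean beetles caught after ~24 h; log-transformed ANOVA with Duncan's test, P=0.05.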

[13] = tested on: western corn rootworm (WCR) adults; test: as above; format: in vivo, Diabrotica virgifera virgifera; conditions: for Mean number of WCR adults per sticky trap (±standard deviation) after 24 hours / Mean number of WCR (±standard deviation) per sticky trap after 24 hours: 100 mg per trap, n = 4
In short: as §6

[14] = tested on: western corn rootworm (WCR); test: Sticky trap attraction in corn, phenylethanol analogues (Example 6); format: in vivo, Diabrotica virgifera virgifera; conditions: 100 mg per trap, four replicates, 24 hour
Protocol: as §4, with “chemicals (purchased from Aldrich Chemical Co.; Milwaukee, Wis.)” for “chemicals”, “Unless otherwise indicated, all” for “Cinnamyl alcohol, 4-methoxycinnamaldehyde, cinnamyl acetate, and 4-(4′methoxyphenyl)-3-butene-2-one which are solids at ambient temperature were prepared as standard w/v solutions in acetone prior to dosing the cotton wicks. All”
as §5

[15] = tested on: D. barberi; test: Sticky trap attraction along hybrid corn, Pomology South Farms (Example 2); format: in vivo, Diabrotica barberi; conditions: 100 mg per trap, n = 4
Protocol: as §2

[16] = tested on: northern corn rootworm (NCR); test: Sticky trap attraction in corn, phenylethanol analogues (Example 6); format: in vivo, Diabrotica barberi; conditions: 100 mg per trap, four replicates, 24 hour
Protocol: as §4, with “chemicals (purchased from Aldrich Chemical Co.; Milwaukee, Wis.)” for “chemicals”, “Unless otherwise indicated, all” for “Cinnamyl alcohol, 4-methoxycinnamaldehyde, cinnamyl acetate, and 4-(4′methoxyphenyl)-3-butene-2-one which are solids at ambient temperature were prepared as standard w/v solutions in acetone prior to dosing the cotton wicks. All”
as §5

[17] = August 4, second year, each compound 20 mg per trap
[18] = August 7, second year, each compound 20 mg per trap
[19] = August first year, South Farms, 24 h, single compounds 100 mg per trap, mixture 20 mg of each component
[20] = August first year, single compounds 100 mg per trap, mixture 20 mg each component

COc1ccccc1OC [Veratrole, 1,2-dimethoxybenzene]
relative percent activity (WCR) as compared with the highest mean value for the test date [1, 17]: 39%
Mean number of WCR per trap (±standard deviation) [1, 17]: 20.0 ± 5.7 per trap
relative percent activity (WCR) as compared with the highest mean value for the test date [1, 18]: 59%
Mean number of WCR per trap (±standard deviation) [1, 18]: 18.5 ± 7.2 per trap
Mean number of WCR per trap (±standard deviation) [1, 19]: 1.5 ± 1.0 per trap
relative percent activity of the mean WCR trap catch as compared with the highest mean value in the column [1, 20]: 22%
mean (±SD) dead SCR beetles for 10 dishes [2]: 63.1±39.9
relative percent activity (SCR) as compared with the highest mean value for the test date [3, 17]: 15%
Mean number of SCR per trap (±standard deviation) [3, 17]: 5.8 ± 3.4 per trap
relative percent activity (SCR) as compared with the highest mean value for the test date [3, 18]: 20%
Mean number of SCR per trap (±standard deviation) [3, 18]: 8.8 ± 2.l
Mean number of SCR per trap (±standard deviation) [3, 19]: 6.8 ± 3.6 per trap
relative percent activity of the mean SCR trap catch as compared with the highest mean value in the column [3, 20]: 33%

COc1ccc(C=CC=O)cc1 [XI, 4-methoxycinnamaldehyde]
Mean number of D. v. virgifera per stick trap per day (±standard deviation) in corn ([4]; August 7): 375.0 ± 50.0^d per stick trap per day
Mean number of D. v. virgifera per stick trap per day (±standard deviation) in corn ([4]; August 18): 178.8 ± 32.0^c per stick trap per day
Mean number of D. cristata per day (±standard deviation) [5]: 11.0 ± 6.7^b per day
Mean number of D. u. howardi per stick trap per day (±standard deviation) in corn ([6]; August 7): 1.5 ± 2.4^a per stick trap per day
Mean number of D. u. howardi per stick trap per day (±standard deviation) in corn ([6]; August 18): 0.0^a per stick trap per day
LR for WCR, most effective volatile attractants yet identified [7]: 0.03 mg
Mean number of D. v. virgifera per day (±standard deviation) [8]: 8.5 ± 5.3^b per day
Mean number of NCR (±standard deviation) per sticky trap after 24 hours ([9]; August 7 (Table 11)): 0.0^a per sticky trap
Mean number of NCR (±standard deviation) per sticky trap after 24 hours ([9]; August 18 (Table 11)): 1.0 ± 0.8^a per sticky trap
Mean number of D. u. howardi per day (±standard deviation) [10]: 0.3 ± 0.5^a per day
Mean number of D. barberi per day (±standard deviation) [11]: 1.0 ± 0.8^a per day
Mean number of SCR adults per sticky trap (±standard deviation) after 24 hours ([12]; August 4 second year): 9.0 ± 6.5^b per sticky trap
Mean number of SCR adults per sticky trap (±standard deviation) after 24 hours ([12]; August 5 first year): 42.7 ± 27.6^b per sticky trap
Mean number of SCR (±standard deviation) per sticky trap after 24 hours ([12]; August 7 (Table 11)): 1.5 ± 2.4^a per sticky trap
Mean number of SCR (±standard deviation) per sticky trap after 24 hours ([12]; August 18 (Table 11)): 0.0^a per sticky trap
Mean number of SCR adults per sticky trap (±standard deviation) after 24 hours ([12]; September 11): 1.5 ± 1.3^ab per sticky trap
period over which treated wicks remained highly attractive to WCR ([13]; 100 mg on wick, transferred daily to fresh traps, August sunlight, two heavy rainstorms): ≥ 16 days
Mean number of WCR adults per sticky trap (±standard deviation) after 24 hours ([13]; August 4 second year): 204.7 ± 34.6^e per sticky trap
Mean number of WCR adults per sticky trap (±standard deviation) after 24 hours ([13]; August 5 first year): 143.7 ± 75.3^e per sticky trap
Mean number of WCR (±standard deviation) per sticky trap after 24 hours ([13]; August 7 (Table 11)): 375.0 ± 50.0^c per sticky trap
Mean number of WCR (±standard deviation) per sticky trap after 24 hours ([13]; August 18 (Table 11)): 178.7 ± 31.9^b per sticky trap
Mean number of WCR adults per sticky trap (±standard deviation) after 24 hours ([13]; September 11): 22.2 ± 23.1^b per sticky trap
effectiveness relative to previously described WCR attractants (indole, estragole) ([13]; by LR): about 100 fold
limit of response (LR) for attraction of WCR adults in corn ([13]; on cotton wicks, logarithmically decreasing amounts): ~0.03 mg
Mean number of WCR per trap (±standard deviation) ([14]; Table 15): 567.5 ± 111.6b per trap
Mean number of WCR per trap (± standard deviation), column WCW ([14]; Table 17): 360.2 ± 181.3c per trap
Mean number of D. barberi per stick trap per day (±standard deviation) in corn ([15]; August 7): 0.3 ± 0.5^a per stick trap per day
Mean number of D. barberi per stick trap per day (±standard deviation) in corn ([15]; August 18): 1.0 ± 0.8^a per stick trap per day
Mean number of NCR per trap (± standard deviation) ([16]; Table 15): 6.4 ± 4.9a per trap
Mean number of NCR per trap (± standard deviation) ([16]; Table 17): 2.5 ± 1.9a per trap
